Holding throughout (format): functional
The subject of assay [1] is Mus musculus. In words: Compound was evaluated for the antinociceptive effects at the dose 4.0(mg/kg).
Assay [2] concerns Mus musculus. As to the kind of experiment: Compound was evaluated for the antinociceptive effects at the dose 2.0(mg/kg).
Assay [3] deals with Mus musculus. In words: Compound was evaluated for the percent inhibition of PAF-induced Paw edema at the dose 0.5 (mg/kg) (Increases in paw volume is 28 uL).
The test system of assay [4] is Mus musculus. In words: Compound was evaluated for the percent inhibition of PAF-induced Paw edema at the dose 0.25 (mg/kg) (Increases in paw volume is 24 uL).
Assay [5] relates to Mus musculus. In words: Compound was evaluated for the antinociceptive effects at the dose 0.25(mg/kg).
The test system of assay [6] is Mus musculus. In words: Compound was evaluated for the antinociceptive effects at the dose 0.5(mg/kg).
Assay [7] has as its system Mus musculus. In words: Compound was evaluated for the antinociceptive effects at the dose 1.0(mg/kg).
The test system of assay [8] is Mus musculus. In words: Compound was evaluated for the percent inhibition of PAF-induced Paw edema at the dose 0.1 (mg/kg) (Increases in paw volume is 38 uL).
Assay [9] has as its system Mus musculus. In words: Compound was evaluated for the antinociceptive effects at the dose 0.1(mg/kg).
The subject of assay [10] is Mus musculus. In words: Compound was evaluated for the percent inhibition of PAF-induced Paw edema at the dose 0.25 (mg/kg) (Increases in paw volume is 11 uL).
Assay [11] deals with Mus musculus. As to the kind of experiment: Compound was evaluated for the effect on leukocyte adhesion at the dose 1.0 (mg/kg); oral administration.
In assay [12] the test system is Mus musculus. In words: Compound was evaluated for the effect on leukocyte adhesion at the dose 0.5 (mg/kg); oral administration.
Assay [13] has as its system Mus musculus. As to the kind of experiment: Compound was evaluated for the percent inhibition of arachidonic acid-induced paw edema at the dose 0.5(mg/kg).
Assay [14] relates to Mus musculus. In words: Compound was evaluated for the effect on leukocyte adhesion at the dose 0.01 (mg/kg); oral administration.
Assay [15] concerns Mus musculus. In words: Compound was evaluated for the effect on leukocyte adhesion at the dose 0.1 (mg/kg); oral administration.
The subject of assay [16] is Mus musculus. In words: Compound was evaluated for the cataleptic effect in the mouse at the dose 1.0(mg/kg).
The subject of assay [17] is Mus musculus. As to the kind of experiment: Compound was evaluated for the effect on leukocyte adhesion at the dose 0.05 (mg/kg); oral administration.
Assay [18] deals with Mus musculus. As to the kind of experiment: Compound was evaluated for the cataleptic effect in the mouse at the dose 0.5(mg/kg).
Assay [19] concerns Mus musculus. In words: Compound was evaluated for the percent inhibition of arachidonic acid-induced paw edema at the dose 0.05(mg/kg).
In assay [20] the test system is Mus musculus. In words: Compound was evaluated for the percent inhibition of arachidonic acid-induced paw edema at the dose 0.1(mg/kg).
The subject of assay [21] is Mus musculus. In words: Compound was evaluated for the percent inhibition of arachidonic acid-induced paw edema at the dose 0.25(mg/kg).
Assay [22] concerns Mus musculus. As to the kind of experiment: Compound was evaluated for the percent inhibition of PAF-induced Paw edema at the dose 0.1 (mg/kg) (Increases in paw volume is 19 uL).
The subject of assay [23] is Mus musculus. In words: Compound was evaluated for the percent inhibition of PAF-induced Paw edema at the dose 0.05 (mg/kg) (Increases in paw volume is 10 uL).
Assay [24] concerns Mus musculus. In words: Compound was evaluated for the antinociceptive effects at the dose 0.025(mg/kg).
In assay [25] the test system is Mus musculus. As to the kind of experiment: Compound was evaluated for the percent inhibition of PAF-induced Paw edema at the dose 0.5 (mg/kg) (Increases in paw volume is 7.5 uL).
For assay [26], the system named is Mus musculus. As to the kind of experiment: Compound was evaluated for the cataleptic effect in the mouse at the dose 4.0(mg/kg).
In assay [27] the test system is Mus musculus. In words: Compound was evaluated for the antinociceptive effects at the dose 0.05(mg/kg).
For assay [28], the system named is Mus musculus. In words: Compound was evaluated for the cataleptic effect in the mouse at the dose 0.25(mg/kg).
Assay [29] has as its system Mus musculus. In words: Compound was evaluated for the cataleptic effect in the mouse at the dose 0.1(mg/kg).
In assay [30] the test system is Mus musculus. In words: Compound was evaluated for the percent inhibition of PAF-induced Paw edema at the dose 0.5 (mg/kg) (Increases in paw volume is -20 uL).
Assay [31] deals with Mus musculus. In words: Compound was evaluated for the percent inhibition of PAF-induced Paw edema at the dose 0.1 (mg/kg) (Increases in paw volume is -10 uL).
The subject of assay [32] is Mus musculus. As to the kind of experiment: Compound was evaluated for the percent inhibition of PAF-induced Paw edema at the dose 0.25 (mg/kg) (Increases in paw volume is -14 uL).
Assay [33] has as its system Mus musculus. In words: Compound was evaluated for the percent inhibition of PAF-induced Paw edema at the dose 0.05 (mg/kg) (Increases in paw volume is -1.2 uL).
Assay [34] concerns Mus musculus. In words: Compound was evaluated for the cataleptic effect in the mouse at the dose 5.0(mg/kg).
The subject of assay [35] is Mus musculus. As to the kind of experiment: Compound was evaluated for the cataleptic effect in the mouse at the dose 0.5 mg/kg.
Assay [36] has as its system Mus musculus. In words: Compound was evaluated for the effect on leukocyte adhesion at the dose 40 (mg/kg); oral administration.
The test system of assay [37] is Mus musculus. As to the kind of experiment: Compound was evaluated for the effect on leukocyte adhesion at the dose 20 (mg/kg); oral administration.
Assay [38] relates to Mus musculus. As to the kind of experiment: Compound was evaluated for the percent inhibition of PAF-induced Paw edema at the dose 1.0 (mg/kg) (Increases in paw volume is 28 uL).
Assay [39] deals with Mus musculus. In words: Compound was evaluated for the percent inhibition of PAF-induced Paw edema at the dose 0.5 (mg/kg) (Increases in paw volume is 44 uL).
In assay [40] the test system is Mus musculus. In words: Compound was evaluated for the percent inhibition of PAF-induced Paw edema at the dose 1.0 (mg/kg) (Increases in paw volume is 14 uL).
Assay [41] has as its system Mus musculus. In words: Compound was evaluated for the effect on leukocyte adhesion at the dose 0.2 (mg/kg); oral administration.
The subject of assay [42] is Mus musculus. In words: Compound was evaluated for the percent inhibition of PAF-induced Paw edema at the dose 0.5 (mg/kg) (Increases in paw volume is 30 uL).
Assay [43] deals with Mus musculus. As to the kind of experiment: Compound was evaluated for the effect on leukocyte adhesion at the dose 0.5(mg/kg); oral administration.
For assay [44], the system named is Mus musculus. As to the kind of experiment: Compound was evaluated for the cataleptic effect in the mouse at the dose 40 mg/kg.

“And” between values parts separate entries of the source, which are not always exact repeats. Identical values can stand only once.

As to `CCCCCCC(C)(C)c1cc(O)c2c(c1)OC(C)(C)C1CC=C(C(=O)OC)C[C@H]21` (some centres undefined), the Change in the assay on Mus musculus [1] is 3.1%; with Mus musculus [2], 37.5%; in the assay on Mus musculus [5], 10.4%; in the assay on Mus musculus [6], 49%; in the assay with Mus musculus [7], 61.4%. Also, the Inhibition in the assay on Mus musculus [3] was -7.5%; in the assay on Mus musculus [4], 7.6%; in the assay with Mus musculus [8] it was -44.2%.

Turning to `CCCCCCC(C)(C)c1cc(O)c2c(c1)OC(C)(C)C1CC=C(C(=O)O)C[C@H]21` (some centres undefined), the Change with Mus musculus [9] stood at 49.5%; with Mus musculus [24], 10.3%; with Mus musculus [5], 61.5%; in the assay on Mus musculus [27], 61.7%; with Mus musculus [6], 51.7%; in the assay with Mus musculus [7], 14.7%. In addition, the Inhibition worked out at 31.9% in the assay with Mus musculus [10]; 47.4% in the assay with Mus musculus [13]; 42.1% in the assay on Mus musculus [19]; 65.8% in the assay with Mus musculus [20]; 52.6% with Mus musculus [21]; 38.7% with Mus musculus [22]. Further, the Inhibition with Mus musculus [23] amounted to 44.4%; in the assay with Mus musculus [25], 60.1%. For the same molecule, the No. of cells was 0.7 in the assay with Mus musculus [11]; 1.46 with Mus musculus [12]; 1.34 with Mus musculus [14]; 1.38 in the assay with Mus musculus [15]; 1.29 with Mus musculus [17]. Besides, the Response in the assay on Mus musculus [16] stood at 10.4; in the assay with Mus musculus [18], 13.8; in the assay on Mus musculus [26], 8.7; in the assay on Mus musculus [28] it was 12.3.

Take `CCCCCCC(C)(C)c1cc(O)c2c(c1)OC(C)(C)[C@@H]1CC=C(C(=O)OC)CC21` (some centres undefined): the Inhibition with Mus musculus [10] worked out at 63.9%; in the assay with Mus musculus [22], 69.3%; with Mus musculus [25], 76%. For the same molecule, the results for the Change with Mus musculus [2] and with Mus musculus [6] were 42.9% and -2.8%, respectively.

Turning to `CCCCCCC(C)(C)c1cc(O)c2c(c1)OC(C)(C)[C@@H]1CC=C(C(=O)O)CC21` (some centres undefined), the Change in the assay on Mus musculus [9] was found to be 68.3%; in the assay with Mus musculus [24], 20.8%; in the assay with Mus musculus [5], 33.4%; in the assay with Mus musculus [27], 85%; in the assay on Mus musculus [6], 34%; in the assay with Mus musculus [7] it was 28.4%. The Response in the assay with Mus musculus [29] amounted to 5.8; in the assay on Mus musculus [16], 12.2. Further, the Inhibition in the assay with Mus musculus [30] is 171%; in the assay with Mus musculus [31], 135%; with Mus musculus [13], 73.7% and 97.4% and 100%; with Mus musculus [32], 150%; in the assay with Mus musculus [19], 26.3%; with Mus musculus [33] it was 101%. Further, the Inhibition in the assay with Mus musculus [20] was found to be 52.6%; with Mus musculus [21] it was 56.4%. The No. of cells in the assay with Mus musculus [11] was 0.3; with Mus musculus [12] it was 0.87; in the assay with Mus musculus [14], 0.88; in the assay on Mus musculus [15] it was 0.64; with Mus musculus [17], 1.34.

On to `CCCCCc1cc(O)c2c(c1)OC(C)(C)[C@H]1C(C(=O)O)CC(C)=CC21` (some centres undefined), for which the No. of cells in the assay with Mus musculus [34] is on record as 10.1; in the assay on Mus musculus [35], 10; in the assay on Mus musculus [36], 0.55; with Mus musculus [37], 0.67.

With `CCCCCCC(C)(C)c1cc(O)c2c(c1)OC(C)(C)C1CC=C(CO)C[C@H]21` (some centres undefined), the No. of cells with Mus musculus [11] turned out to be 0.59; in the assay on Mus musculus [12], 0.64; in the assay with Mus musculus [15], 0.44; with Mus musculus [17], 1.09. Also, the Inhibition is on record as 21.8% in the assay with Mus musculus [38] and -37.5% in the assay with Mus musculus [39].

Take `CCCCCCC(C)(C)c1cc(O)c2c(c1)OC(C)(C)[C@@H]1CC=C(CO)CC21` (some centres undefined): the No. of cells is given as 0.94 with Mus musculus [15], 1.12 in the assay on Mus musculus [17], 0.58 in the assay with Mus musculus [41] and 0.59 with Mus musculus [43]. Moreover, the Inhibition is listed as 56.3% in the assay with Mus musculus [40] and 6.3% with Mus musculus [42].

In turn, `CCCCCc1cc(O)c2c(c1)OC(C)(C)[C@@H]1CCC(C)=C[C@@H]21` [DRONABINOL] registered a Cataleptic effect in the assay on Mus musculus [44] of 48.9.

(Values after ChEMBL document CHEMBL1125531, “Synthetic nonpsychotropic cannabinoids with potent antiinflammatory, analgesic, and leukocyte antiadhesion activities” (1992).)
